Results published in the supplement of paper PMC10307832.

Key:
Test in all cases: relative viability (nuclei count vs DMSO), 5 days (fraction); higher = more cells survive
[1] = compound: C1=CC=C2C(=C1)N=C(S2)C(C#N)C3=NC(=NC=C3)NCCC4=CN=CC=C4 + CC1(C)CCC(c2ccc(Cl)cc2)=C(CN2CCN(c3ccc(C(=O)NS(=O)(=O)c4ccc(N[C@H](CCN5CCOCC5)CSc5ccccc5)c(S(=O)(=O)C(F)(F)F)c4)cc3)CC2)C1 [Navitoclax] (partner 0.5 µM)
In short: (§1)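 Each reported value is a median over duplicate plates. It expresses relative viability: treated-well nuclei count divided by vehicle-well nuclei count. Lung cancer cell lines in 1536-well plates were dosed by pin tool a day after seeding, alone with one drug or with a fixed anchor-drug dose plus five library-drug doses (not always all listed) in √10 steps, and nuclei were counted after 5 days.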

NVP-TAE684 + Bortezomib = compound: COc1cc(N2CCC(N3CCN(C)CC3)CC2)ccc1Nc1ncc(Cl)c(Nc2ccccc2S(=O)(=O)C(C)C)n1 [NVP-TAE684] + CC(C)C[C@H](NC(=O)[C@H](Cc1ccccc1)NC(=O)c1cnccn1)B(O)O [Bortezomib] (partner 0.002 µM)
In short: as §1

NVP-TAE684 + Linsitinib = compound: COc1cc(N2CCC(N3CCN(C)CC3)CC2)ccc1Nc1ncc(Cl)c(Nc2ccccc2S(=O)(=O)C(C)C)n1 [NVP-TAE684] + C[C@]1(O)C[C@@H](c2nc(-c3ccc4ccc(-c5ccccc5)nc4c3)c3c(N)nccn32)C1 [Linsitinib] (partner 1 µM)
In short: as §1

Vandetanib + Tozasertib = compound: COc1cc2/c(=N/c3ccc(Br)cc3F)nc[nH]c2cc1OCC1CCN(C)CC1 [Vandetanib] + Cc1cc(Nc2cc(N3CCN(C)CC3)nc(Sc3ccc(NC(=O)C4CC4)cc3)n2)n[nH]1 [Tozasertib] (partner 0.1 µM)
In short: as §1

Cell Line | relative viability ([1]; first compound 0.005 µM) | relative viability ([1]; first compound 0.01581 µM) | relative viability ([1]; first compound 0.05 µM) | relative viability ([1]; first compound 0.1581 µM) | relative viability ([1]; first compound 0.5 µM) | relative viability (NVP-TAE684 + Bortezomib; first compound 0.2 µM) | relative viability (NVP-TAE684 + Bortezomib; first compound 0.6325 µM) | relative viability (NVP-TAE684 + Bortezomib; first compound 2 µM) | relative viability (NVP-TAE684 + Linsitinib; first compound 0.2 µM) | relative viability (NVP-TAE684 + Linsitinib; first compound 0.6325 µM) | relative viability (NVP-TAE684 + Linsitinib; first compound 2 µM) | relative viability (Vandetanib + Tozasertib; first compound 0.02 µM) | relative viability (Vandetanib + Tozasertib; first compound 0.06325 µM) | relative viability (Vandetanib + Tozasertib; first compound 0.2 µM) | relative viability (Vandetanib + Tozasertib; first compound 0.6325 µM) | relative viability (Vandetanib + Tozasertib; first compound 2 µM)
NCI-H838 | 1.02 | 1.22 | 1.16 | 1.1 | 1.22 | 0.86 | 0.902 | 0.399 | 1.22 | 0.955 | 0.372 | 0.264 | 0.273 | 0.193 | 0.253 | 0.229
HCC-827 | 1.07 | 1.07 | 1.02 | 1.05 | 1.04 | – | 0.988 | 1.05 | 0.978 | 1.01 | 0.973 | 0.442 | 0.419 | 0.415 | 0.243 | 0.135
LOU-NH91 | 0.682 | 0.724 | 0.578 | 0.633 | 0.641 | 0.548 | 0.492 | 0.518 | 0.936 | 0.832 | 0.665 | 0.735 | 0.635 | 0.61 | 0.543 | 0.526
NCI-H3122 | 0.935 | 1.04 | 0.984 | 1.04 | 1.01 | 0.763 | 0.218 | 0.162 | 0.266 | 0.222 | 0.184 | 0.522 | 0.36 | 0.372 | 0.399 | 0.4
NCI-H1734 | 0.58 | 1.05 | 0.886 | 0.932 | 0.664 | 0.986 | 0.982 | 0.601 | 0.849 | 0.92 | 0.818 | 0.24 | 0.289 | 0.14 | 0.216 | 0.261
EPLC-272H | 0.94 | 1.05 | 1.14 | 1.04 | 1.08 | 1.23 | – | 0.66 | 1.08 | – | 1.3 | 0.25 | – | 0.285 | 0.282 | 0.306
RERF-LC-KJ | 1.29 | 0.811 | 0.804 | 0.843 | 0.875 | 0.952 | 1.25 | 0.916 | 0.921 | 1.01 | – | 0.549 | 0.515 | 0.491 | 0.439 | 0.477
HARA | 1.09 | 1.16 | 1.14 | 1.22 | 1.21 | 1.31 | 1.1 | 1.05 | 0.985 | 0.929 | 0.474 | 0.111 | 0.118 | 0.0738 | 0.466 | 0.0849
NCI-H1651 | 0.9 | 1.08 | 0.95 | 1.11 | 1.17 | 0.987 | 0.98 | 0.93 | 1.02 | 0.98 | 0.935 | 0.68 | 0.688 | 0.14 | 0.854 | 0.686
NCI-H2405 | 0.828 | 0.936 | 0.815 | 0.862 | 0.859 | 0.941 | 0.986 | 0.82 | – | 0.849 | 0.573 | 0.754 | 0.716 | 0.738 | 0.685 | 0.714
NCI-H596 | 0.913 | 1.08 | 0.893 | 1.18 | 0.953 | 1.3 | 0.919 | – | 1.06 | – | 0.688 | 0.922 | 0.706 | 0.688 | 1.03 | 0.898
NCI-H2009 | 1.13 | 1.17 | 1.14 | 1.22 | 1.21 | 0.977 | 0.897 | 0.645 | 1.08 | 1.21 | 0.986 | 0.733 | 0.704 | 0.419 | 0.735 | 0.786
LU99A | 0.691 | 0.968 | 0.777 | 0.948 | 0.866 | 1.29 | 1.1 | 0.653 | 0.614 | 0.558 | 0.445 | 0.253 | 0.33 | 0.251 | 0.261 | 0.3
PC-3 [JPC-3] | 0.776 | 0.835 | 0.731 | 0.819 | 0.843 | 0.99 | – | 0.731 | 0.96 | 0.934 | 0.843 | 0.851 | 0.831 | 0.938 | 0.776 | 0.491
HCC-44 | 0.759 | 1.13 | 0.906 | 1.02 | 0.872 | 1 | 0.863 | 0.83 | 0.785 | 0.674 | 0.482 | 0.924 | 0.851 | 1.01 | 1.05 | 0.949
H3255 | 0.591 | 0.424 | 0.567 | 0.689 | 0.624 | 0.766 | 0.618 | 0.746 | 0.903 | 0.927 | 0.69 | 0.469 | 0.727 | 0.579 | 0.554 | 0.345
LXF-289 | 0.857 | 0.972 | 0.95 | 1 | 0.892 | 1.06 | 1.03 | 1.02 | 0.937 | 1.01 | 0.822 | 0.242 | 0.241 | 0.215 | 0.176 | 0.193

Cell Line | relative viability ([1]; first compound 0.005 µM) | relative viability ([1]; first compound 0.01581 µM) | relative viability ([1]; first compound 0.05 µM) | relative viability ([1]; first compound 0.1581 µM) | relative viability ([1]; first compound 0.5 µM) | relative viability (NVP-TAE684 + Bortezomib; first compound 0.2 µM) | relative viability (NVP-TAE684 + Bortezomib; first compound 0.6325 µM) | relative viability (NVP-TAE684 + Bortezomib; first compound 2 µM) | relative viability (NVP-TAE684 + Linsitinib; first compound 0.2 µM) | relative viability (NVP-TAE684 + Linsitinib; first compound 0.6325 µM) | relative viability (NVP-TAE684 + Linsitinib; first compound 2 µM) | relative viability (Vandetanib + Tozasertib; first compound 0.02 µM) | relative viability (Vandetanib + Tozasertib; first compound 0.06325 µM) | relative viability (Vandetanib + Tozasertib; first compound 0.2 µM) | relative viability (Vandetanib + Tozasertib; first compound 0.6325 µM) | relative viability (Vandetanib + Tozasertib; first compound 2 µM)
PC-14 | 0.808 | 1.13 | 1.09 | 1.09 | 0.851 | – | 0.928 | 0.964 | 0.934 | 1.1 | 0.851 | 0.598 | 0.542 | 0.554 | 0.478 | 0.191
EKVX | 0.947 | 0.986 | 1.09 | 0.949 | 1.11 | 0.98 | 0.926 | 0.587 | 0.896 | 0.897 | 0.709 | 0.431 | 0.424 | 0.398 | 0.409 | 0.27
NCI-H322M | 1.24 | 1.24 | 1.23 | 1.49 | 1.18 | 1.23 | 1.16 | 0.924 | 0.805 | 0.862 | 0.872 | 0.52 | 0.454 | 0.521 | 0.465 | 0.291
NCI-H1355 | 0.975 | 0.959 | 0.906 | 1.03 | 0.975 | 1.23 | 1.17 | 0.859 | 0.724 | 0.826 | 0.535 | 0.614 | 0.519 | 0.562 | 0.494 | 0.516
NCI-H2126 | 0.91 | 0.913 | 0.782 | 0.831 | 0.842 | 1.09 | 1.07 | 0.958 | 0.701 | 0.684 | 0.688 | 0.814 | 0.8 | 0.795 | 0.745 | 0.657
NCI-H520 | 0.929 | 1.25 | 1.03 | 1.26 | 1.19 | – | 0.672 | 0.321 | 0.911 | 0.986 | 0.45 | 0.437 | 0.414 | 0.482 | 0.432 | 0.501
NCI-H1755 | 0.968 | 1.1 | 1 | 1.15 | 0.948 | – | 0.949 | 0.838 | 1.05 | 1.05 | – | 0.581 | 0.568 | 0.648 | 0.536 | 0.567
NCI-H2228 | 0.915 | 1.39 | 0.827 | 0.997 | 0.954 | 0.633 | 0.33 | 0.214 | 0.458 | 0.321 | 0.285 | 0.263 | 0.304 | 0.124 | 0.219 | 0.214
NCI-H2347 | 0.727 | 0.891 | 0.834 | 0.827 | 0.735 | 1.41 | 0.822 | 1.02 | 1.06 | 0.976 | 0.875 | 0.607 | – | 0.553 | 0.563 | 0.674
HCC-15 | 0.736 | 0.787 | 0.664 | 0.749 | 0.602 | 0.916 | 1.07 | 1 | 0.84 | 0.866 | 0.601 | 0.555 | 0.416 | 0.07 | 0.35 | 0.347
NCI-H23 | – | 0.958 | 0.728 | 0.959 | 0.958 | 0.867 | 0.993 | 0.54 | 0.533 | 0.584 | 0.509 | 0.307 | 0.41 | 0.144 | 0.382 | 0.327
LC-2-ad | 0.358 | 0.497 | 0.447 | 0.581 | 0.351 | 1.13 | 0.9 | 0.605 | 0.842 | 0.771 | 0.218 | 0.471 | 0.462 | 0.467 | 0.45 | 0.357
LCLC-97TM1 | 0.382 | 0.429 | 0.339 | 0.596 | 0.288 | 0.711 | 0.216 | 0.194 | 0.136 | 0.189 | 0.136 | 0.219 | 0.225 | 0.346 | 0.24 | 0.251
HOP-62 | 0.854 | 1.25 | 1.05 | 1.16 | 0.871 | 0.678 | 0.725 | 0.758 | 0.97 | 0.963 | 0.755 | 0.42 | 0.379 | 0.191 | 0.384 | 0.368
NCI-H2085 | 0.946 | 1.09 | 1.09 | 1.15 | 0.981 | 0.95 | 0.926 | 0.955 | 0.928 | 0.82 | 0.7 | 0.793 | 0.755 | 0.472 | 0.774 | 0.725
NCI-H2087 | 0.986 | 1.01 | 1.16 | 1 | 0.927 | 0.998 | 0.789 | 0.886 | 1.04 | 1.04 | 0.982 | 0.252 | 0.266 | 0.0945 | 0.278 | 0.262
COR-L 105 | 0.819 | 0.753 | 0.599 | 0.667 | 0.729 | 0.903 | 0.556 | 0.309 | 0.915 | – | 0.625 | 0.331 | 0.355 | 0.223 | 0.317 | 0.286
